In PubChem BioAssay (NCI):
Where “and” joins values, the source holds several entries; their conditions need not be identical. Equal entries are not always repeated.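 A five-concentration, 48-hour dose response in 96-well plates underlies each endpoint, interpolated linearly between surrounding concentrations. The concentration for 50% growth inhibition is given as GI50. TGI: total growth inhibition.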

Key:
Test in all cases: growth of human tumour cells (NCI), 48 h
786-0 renal = test system: 786-0 renal
HCC-2998 colon = test system: HCC-2998 colon
HOP-92 NSCLC = test system: HOP-92 NSCLC
BT-549 breast = test system: BT-549 breast
T-47D breast = test system: T-47D breast
OVCAR-5 ovarian = test system: OVCAR-5 ovarian
U251 CNS = test system: U251 CNS
OVCAR-4 ovarian = test system: OVCAR-4 ovarian
PC-3 prostate = test system: PC-3 prostate
MALME-3M melanoma = test system: MALME-3M melanoma

Row | SMILES | GI50 (786-0 renal) | TGI (786-0 renal) | GI50 (HCC-2998 colon) | TGI (HCC-2998 colon) | GI50 (HOP-92 NSCLC) | TGI (HOP-92 NSCLC) | TGI (BT-549 breast) | GI50 (T-47D breast) | TGI (T-47D breast) [nM] | GI50 (OVCAR-5 ovarian) [nM] | TGI (OVCAR-5 ovarian) | GI50 (U251 CNS) [nM] | TGI (U251 CNS) | GI50 (OVCAR-4 ovarian) [nM] | TGI (OVCAR-4 ovarian) | TGI (PC-3 prostate) | GI50 (MALME-3M melanoma) | TGI (MALME-3M melanoma) | GI50 (BT-549 breast) [nM] | GI50 (PC-3 prostate)
1 | C/C(=N\NC(=S)N1CCC1)c1ccccn1 | 55.5 nM | > 52400 nM | 11.3 nM | 26800 nM | 35.1 nM | 47900 nM | 73300 nM | 39.5 nM | > 100000 | 6.89 | 49900 nM | 7.25 | > 82600 nM | 3.12 | > 56700 nM | > 100000 nM | 10.1 nM | 7650 nM |  | 
2 | COc1ccc(-c2cnc(-c3ccncc3-c3cccc(OC)c3)o2)cc1 | 62.7 nM | 15000 nM | 79.9 nM | 14300 nM | 403 nM | 20200 nM | 13900 nM | 2580 nM | 35100 | 80.9 | 23500 nM | 38.7 | 13400 nM | 677 | 29200 nM | 16900 nM |  |  | 154 | 37.9 nM
3 | Nc1nc(Cl)c2ncn(Cc3ccc(C45CC6CC(CC(C6)C4)C5)c(OCc4cc(F)c(F)cc4F)c3)c2n1 | 1850 nM | 4930 nM | 2480 nM | 5580 nM | 2020 nM | 6030 nM | 13000 nM | 6750 nM | 44800 | 13400 | 33900 nM | 3040 | 16300 nM | 6080 | > 100000 nM | 3980 nM | 2470 nM | 8620 nM | 3860 | 1000 nM
4 | CN(C)CCCOc1ccc(NC2=C(Cl)C(=O)C(Nc3ccc(OCCCN(C)C)cc3)=C(Cl)C2=O)cc1 | 1590 nM | 2980 nM | 769 nM | 2090 nM | 567 nM | 1080 nM | 3080 nM | 1960 nM | 4960 | 1690 | 3180 nM | 1530 | 2940 nM | 140 | 270 nM | 2760 nM | 336 nM | 935 nM | 1710 | 1230 nM
5 | O=[N+]([O-])/C=C/c1ccc2ccccc2c1 |  | > 20400 nM |  | 678 nM |  | 21100 nM | 7800 nM |  | 2130 |  | > 30100 nM |  | 3080 nM |  | 26000 nM | 14000 nM |  | 33900 nM |  | 
6 | NC(=O)c1nc(-c2c(F)cccc2Cl)oc1Nc1ccc(C(=O)N2CCOCC2)cc1 | 2180 nM | > 100000 nM | 14800 nM | > 100000 nM | 262 nM | 2110 nM | 54600 nM | 3460 nM | 62700 | 2310 | > 100000 nM | 2250 | > 100000 nM | 28400 | > 100000 nM | > 100000 nM | 13000 nM | 55600 nM | 3620 | 7830 nM
7 | CCN(CC)CCNc1n[n+]([O-])c2cc([N+](=O)[O-])ccc2[n+]1[O-] | 462 nM and 239 nM and 200 nM | 3100 nM and 1630 nM and 1680 nM | 206 nM and 287 nM and 120 nM | 1530 nM and 2010 nM and 570 nM | 163 nM and 297 nM and 449 nM | 1930 nM and 2530 nM and 2280 nM | 8850 nM and 8270 nM and 3640 nM | 1340 nM and 381 nM and 779 nM | 3220 |  | 4450 nM and 3440 nM and 4330 nM |  | 3100 nM and 2730 nM and 2780 nM |  | 3780 nM and 5620 nM and 6490 nM | 9400 nM and 4920 nM and 4590 nM | 571 nM and 306 nM and 144 nM | 1850 nM and 1380 nM and 1150 nM |  | 1090 nM and 351 nM and 360 nM
